Experimental data taken from the supplement of paper PMC11061612.

Assays:
Lapatinib = compound: CS(=O)(=O)CCNCc1ccc(-c2ccc3ncnc(Nc4ccc(OCc5cccc(F)c5)c(Cl)c4)c3c2)o1 [Lapatinib]; conditions: max 10 µM
In short: (§1)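 Plates with 1536 wells received cancer cell lines in 7.5 μl of DMEM/F12 or RPMI containing 10% FBS. After 24 hours at 37°C and 5% CO2, cells were dosed for 72 hours with final DMSO typically 0.2%, and viability was read by CellTiter-Glo 2.0 luminescence scaled between blank-well and DMSO-well means. The single-agent IC50 was taken from a logistic fit of the dose responses made with a non-linear mixed effects model, that logistic curve having two parameters.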

AZD8186 = compound: C[C@@H](Nc1cc(F)cc(F)c1)c1cc(C(=O)N(C)C)cc2c(=O)cc(N3CCOCC3)oc12 [AZD8186]; conditions: max 3 µM
In short: as §1

Dasatinib = compound: CC1=C(C(=CC=C1)Cl)NC(=O)C2=CN=C(S2)NC3=CC(=NC(=N3)C)N4CCN(CC4)CCO [Dasatinib]; conditions: max 2 µM
In short: as §1

Venetoclax = compound: CC1(C)CCC(CN2CCN(c3ccc(C(=O)NS(=O)(=O)c4ccc(NCC5CCOCC5)c([N+](=O)[O-])c4)c(Oc4cnc5[nH]ccc5c4)c3)CC2)=C(c2ccc(Cl)cc2)C1 [Venetoclax]; conditions: max 1 µM
In short: as §1

AZD6738 = compound: C[C@@H]1COCCN1C2=NC(=NC(=C2)C3(CC3)[S@](=N)(=O)C)C4=C5C=CNC5=NC=C4 [AZD6738]; conditions: max 10 µM
In short: as §1

Alisertib = compound: COc1cc(Nc2ncc3c(n2)-c2ccc(Cl)cc2C(c2c(F)cccc2OC)=NC3)ccc1C(=O)O [Alisertib]; conditions: max 10 µM
In short: as §1

AZD4320 = compound: CN(CC[C@H](CSC1=CC=CC=C1)NC2=C(C=C(C=C2)S(=O)(=O)NC(=O)C3=CC=C(C=C3)N4CCC(CC4)[C@H](C5=CC=CC=C5C6=CC=C(C=C6)Cl)O)S(=O)(=O)C(F)(F)F)CCO [AZD4320]; conditions: max 1 µM
In short: as §1

Palbociclib = compound: CC(=O)c1c(C)c2cnc(Nc3ccc(N4CCNCC4)cn3)nc2n(C2CCCC2)c1=O [Palbociclib]; conditions: max 10 µM
In short: as §1

AZD7648 = compound: Cc1cc2ncnn2cc1Nc1ncc2c(n1)n(C1CCOCC1)c(=O)n2C [AZD7648]; conditions: max 10 µM
In short: as §1

SG3199 = compound: CC1=CN2[C@@H](C1)C=NC3=CC(=C(C=C3C2=O)OC)OCCCCCOC4=C(C=C5C(=C4)N=C[C@@H]6CC(=CN6C5=O)C)OC [SG3199]; conditions: max 0.001 µM
In short: as §1

Savolitinib = compound: C[C@@H](c1ccc2nccn2c1)n1nnc2ncc(-c3cnn(C)c3)nc21 [Savolitinib]; conditions: max 1 µM
In short: as §1

SN-38 = compound: CCc1c2c(nc3ccc(O)cc13)-c1cc3c(c(=O)n1C2)COC(=O)[C@]3(O)CC [SN-38]; conditions: max 0.3 µM
In short: as §1

Gefitinib = compound: COc1cc2ncnc(Nc3ccc(F)c(Cl)c3)c2cc1OCCCN1CCOCC1 [Gefitinib]; conditions: max 10 µM
In short: as §1

Olaparib = compound: O=C(c1cc(Cc2n[nH]c(=O)c3ccccc23)ccc1F)N1CCN(C(=O)C2CC2)CC1 [Olaparib]; conditions: max 10 µM
In short: as §1

Doxorubicin = compound: COc1cccc2c1C(=O)c1c(O)c3c(c(O)c1C2=O)C[C@@](O)(C(=O)CO)C[C@@H]3O[C@H]1C[C@H](N)[C@H](O)[C@H](C)O1 [Doxorubicin]; conditions: max 1 µM
In short: as §1

Taselisib = compound: Cc1nc(-c2cn3c(n2)-c2ccc(-c4cnn(C(C)(C)C(N)=O)c4)cc2OCC3)n(C(C)C)n1 [Taselisib]; conditions: max 10 µM
In short: as §1

AZD0156 = compound: CN(C)CCCOc1ccc(-c2ccc3ncc4c(c3c2)n(C2CCOCC2)c(=O)n4C)cn1 [AZD0156]; conditions: max 3 µM
In short: as §1

Prexasertib = compound: COc1cccc(OCCCN)c1-c1cc(Nc2cnc(C#N)cn2)n[nH]1 [Prexasertib]; conditions: max 1 µM
In short: as §1

Trametinib = compound: CC(=O)Nc1cccc(-n2c(=O)n(C3CC3)c(=O)c3c(Nc4ccc(I)cc4F)n(C)c(=O)c(C)c32)c1 [Trametinib]; conditions: max 1 µM
In short: as §1

AZD1775 = compound: C=CCn1c(=O)c2cnc(Nc3ccc(N4CCN(C)CC4)cc3)nc2n1-c1cccc(C(C)(C)O)n1 [AZD1775]; conditions: max 3 µM
In short: as §1

AZD1390 = compound: CC(C)n1c(=O)n(C)c2cnc3cc(F)c(-c4ccc(OCCCN5CCCCC5)nc4)cc3c21 [AZD1390]; conditions: max 0.3 µM
In short: as §1

Selumetinib = compound: Cn1cnc2c(F)c(Nc3ccc(Br)cc3Cl)c(C(=O)NOCCO)cc21 [Selumetinib]; conditions: max 10 µM
In short: as §1

Crizotinib = compound: C[C@@H](Oc1cc(-c2cnn(C3CCNCC3)c2)cnc1N)c1c(Cl)ccc(F)c1Cl [Crizotinib]; conditions: max 10 µM
In short: as §1

Capivasertib = compound: C1CN(CCC1(C(=O)N[C@@H](CCO)C2=CC=C(C=C2)Cl)N)C3=NC=NC4=C3C=CN4 [Capivasertib]; conditions: max 10 µM
In short: as §1

AZD2811 = compound: CCN(CCO)CCCOc1ccc2c(Nc3cc(CC(=O)Nc4cccc(F)c4)[nH]n3)ncnc2c1 [AZD2811]; conditions: max 1 µM
In short: as §1

AZD5991 = compound: Cc1c2c(nn1C)CSCc1cc(n(C)n1)CSc1cc(c3ccccc3c1)OCCCc1c(C(=O)O)n(C)c3c-2c(Cl)ccc13 [AZD5991]; conditions: max 1 µM
In short: as §1

AZD5153 = compound: COc1nnc2ccc(N3CCC(c4ccc(OCCN5CCN(C)C(=O)[C@H]5C)cc4)CC3)nn12 [AZD5153]; conditions: max 1 µM
In short: as §1

MK-2206 = compound: NC1(c2ccc(-c3nc4ccn5c(=O)[nH]nc5c4cc3-c3ccccc3)cc2)CCC1 [MK-2206]; conditions: max 10 µM
In short: as §1

Cell Line	IC50, cell viability 72 h (Lapatinib)	IC50, cell viability 72 h (AZD8186)	IC50, cell viability 72 h (Dasatinib)	IC50, cell viability 72 h (Venetoclax)	IC50, cell viability 72 h (AZD6738)	IC50, cell viability 72 h (Alisertib)	IC50, cell viability 72 h (AZD4320)	IC50, cell viability 72 h (Palbociclib)	IC50, cell viability 72 h (AZD7648)	IC50, cell viability 72 h (SG3199)	IC50, cell viability 72 h (Savolitinib)	IC50, cell viability 72 h (SN-38)	IC50, cell viability 72 h (Gefitinib)	IC50, cell viability 72 h (Olaparib)	IC50, cell viability 72 h (Doxorubicin)	IC50, cell viability 72 h (Taselisib)	IC50, cell viability 72 h (AZD0156)	IC50, cell viability 72 h (Prexasertib)	IC50, cell viability 72 h (Trametinib)	IC50, cell viability 72 h (AZD1775)	IC50, cell viability 72 h (AZD1390)	IC50, cell viability 72 h (Selumetinib)	IC50, cell viability 72 h (Crizotinib)	IC50, cell viability 72 h (Capivasertib)	IC50, cell viability 72 h (AZD2811)	IC50, cell viability 72 h (AZD5991)	IC50, cell viability 72 h (AZD5153)	IC50, cell viability 72 h (MK-2206)
HCC-827 (Lung Adenocarcinoma)	3 µM	> 3000 nM	130 nM	> 1000 nM	> 10 µM	> 10 µM	> 1000 nM	> 10 µM	> 10 µM	> 1 nM	> 1000 nM	> 300 nM	0.0842 µM	> 10 µM	> 1000 nM	8.54 µM	> 3000 nM	465 nM	> 1000 nM	> 3000 nM	> 300 nM	> 10 µM	> 10 µM	> 10 µM	> 1000 nM	> 1000 nM	> 1000 nM	–
HOP-92 (Non-Small Cell Lung Carcinoma)	> 10 µM	> 3000 nM	> 2000 nM	> 1000 nM	> 10 µM	> 10 µM	140 nM	> 10 µM	> 10 µM	> 1 nM	> 1000 nM	109 nM	> 10 µM	> 10 µM	> 1000 nM	6.71 µM	> 3000 nM	134 nM	139 nM	> 3000 nM	> 300 nM	> 10 µM	> 10 µM	> 10 µM	> 1000 nM	> 1000 nM	> 1000 nM	> 10 µM
HuO9 (Osteosarcoma)	> 10 µM	> 3000 nM	> 2000 nM	> 1000 nM	1.16 µM	5.74 µM	171 nM	> 10 µM	> 10 µM	> 1 nM	> 1000 nM	3.15 nM	> 10 µM	> 10 µM	322 nM	0.511 µM	> 3000 nM	46.3 nM	> 1000 nM	307 nM	> 300 nM	> 10 µM	7.07 µM	> 10 µM	> 1000 nM	64.2 nM	275 nM	8.02 µM
JHH-6 (Hepatocellular Carcinoma)	> 10 µM	> 3000 nM	> 2000 nM	> 1000 nM	> 10 µM	> 10 µM	> 1000 nM	> 10 µM	> 10 µM	> 1 nM	> 1000 nM	> 300 nM	> 10 µM	> 10 µM	> 1000 nM	> 10 µM	> 3000 nM	> 1000 nM	> 1000 nM	> 3000 nM	> 300 nM	> 10 µM	> 10 µM	> 10 µM	> 1000 nM	> 1000 nM	922 nM	–
